Test results as given in the NIST ThermoML archive (doi:10.1021/je901092b).

Conditions: 101.33 kPa, Liquid; for mass density: Pycnometric method

CCCCCCCC[n+]1ccn(C)c1.[I-] [1-methyl-3-octyl-1H-imidazolium iodide]
Conditions	mass density [kg/m3]	viscosity [mPa·s]
300.15 K	1258	1306.3
303.15 K	1254	981.11
308.15 K	1250	726.71
313.15 K	1246	524.3
319.15 K	1242	404.37
323.15 K	1240	296.66
328.15 K	1234	229.09
333.15 K	1230	174.35
338.15 K	1228	138.53
343.15 K	1224	104.81
348.15 K	1218	89.02
353.15 K	1212	73.17
358.15 K	1210	58.41
363.15 K	1206	49.6
368.15 K	1204	43.21
373.15 K	1200	35.57
378.15 K	1196	31.43

CCCCn1cc[n+](C)c1.[I-] [1-butyl-3-methylimidazolium iodide]
Conditions	mass density [kg/m3]	viscosity [mPa·s]
299.15 K	1434	593.68
304.15 K	1432	442.64
308.15 K	1430	336.95
313.15 K	1426	227.98
318.15 K	1422	173.86
323.15 K	1418	134.23
328.15 K	1414	105.34
333.15 K	1406	81.51
338.15 K	1400	65.85
343.15 K	1398	53.43
348.15 K	1396	44.68
353.15 K	1394	36.52
358.15 K	1392	30.4
363.15 K	1388	26.11
368.15 K	1386	22.5
373.15 K	1382	20.43
378.15 K	1376	18.1
383.15 K	1370	15.22
388.15 K	1360	13.11

CCCCCCn1cc[n+](C)c1.[I-] [1-hexyl-3-methylimidazolium iodide]
Conditions	mass density [kg/m3]	viscosity [mPa·s]
305.15 K	1326	809.79
309.15 K	1324	600.07
314.15 K	1322	432.98
318.15 K	1320	334.25
323.15 K	1318	245.55
328.15 K	1316	190.14
333.15 K	1314	146.47
338.15 K	1312	116.13
343.15 K	1310	88.04
348.15 K	1308	73.85
353.15 K	1306	60.63
359.15 K	1304	48.47
363.15 K	1302	42.23
373.15 K	1298	30.45
378.15 K	1296	26.62
383.15 K	1294	23.19
388.15 K	1292	20.3
